Reference: patent US10016376B2, “Composition for alleviating nephrotoxicity caused by immunosuppressive drug, comprising metformin, and composition for preventing or treating immune disease, comprising the same” (THE CATHOLIC UNIVERSITY OF KOREA INDUSTRY-ACADEMIC …, priority 2014, dated 2018)

How the values were obtained:
IL-17 = test: ELISA of IL-17 secreted by allogeneic reactive T cells in mixed lymphocyte culture; format: cell-based, Balb/c; conditions: metformin 200 μM, 3 days
Method: (§1) To examine an effect of metformin and FK506 on the secretion of inflammatory cytokines by allogeneic reactive T cells, the allogeneic reactive T cells were treated with metformin (200 μM) or FK506 (1 nM or 100 nM) according to the experimental conditions, and then cultured for 3 days under the same in vitro allo-response conditions as in <Example 2>. Thereafter, levels of IFN-γ and IL-17 secreted by the T cells in the resulting culture broth were measured using ELISA (FIG. 5). The statistical analysis was carried out using a Graph prism (t-test, ANOVA), and the statistical significance was p<0.05. […] Thereafter, levels of IFN-γ and IL-17 secreted by the T cells in the resulting culture broth were measured using ELISA (FIG. 6). The statistical analysis was carried out using a Graph prism (t-test, ANOVA), and the statistical significance was p<0.05.

Treg cells = test: flow cytometry of Treg activity under anti-CD3 T cell activation conditions; format: cell-based, C57BL/6 mice; conditions: 3 days; for Treg activity (ratio of Foxp3+CD25+ cells to CD4+ T cells): metformin 200 μM, FK506 100 nM, anti-CD3 1 μg/ml
Method: An effect of metformin and FK506 on the activity of Treg cells under T cell activation conditions (anti-CD3 conditions) was examined (FIGS. 8A and 8B). Splenocytes obtained from normal C57BL/6 mice were seeded in a 24-well plate at a density of 1×10^6 cells/ml, treated with metformin (200 μM) or FK506 (100 nM) according to the experimental conditions, and then cultured for 3 days under anti-CD3 activation conditions (1 μg/ml). For the analysis using a flow cytometer, the cells were treated with an anti-CD4-percp antibody and an anti-CD25-APC antibody, reacted at 4° C. for 30 minutes, permeabilized, reacted with an anti-Foxp3-PE antibody, and then analyzed using the flow cytometer. To analyze the Treg activity, cells expressing a CD4+CD25+Foxp3 marker were gated and analyzed. For the results, the ratio of Foxp3+CD25+ cells to the whole cultured CD4+ T cells was plotted on a bar graph. The statistical analysis was carried out using a Graph prism (t-test, ANOVA), and the statistical significance was p<0.05.

[1] = blood concentration of FK506 in whole blood (LC/MS/MS); format: in vivo; conditions: Sprague-Dawley, rat, subcutaneous; rats, whole blood after 4 weeks; FK506 1.5 mg/kg s.c., with or without metformin 250 mg/kg oral
Method: Thereafter, a blood concentration of FK506 in the collected whole blood was measured using a mass spectrometer (API 3000 LC/MS/MS, Applied Biocystem, Foster City, Calif.).

immunoglobulins (IgG) = immunoglobulins (IgG) secreted by LPS-stimulated splenocytes; format: cell-based, C57BL/6 mice; conditions: LPS 100 ng/ml, metformin 200 μM, FK506 100 nM, 3 days; vs control (LPS)
Method: (§2) Concentrations of TNF-α and IL-6 present in the resulting culture broth were measured to compare the drug effects (FIG. 10). Also, a concentration of immunoglobulins (IgG) present in the culture broth was measured in the same cell culture conditions to compare the drug effects (FIG. 11). The statistical analysis was carried out using a Graph prism (t-test, ANOVA), and the statistical significance was p<0.05.

IFN-γ = test: ELISA of IFN-γ secreted by allogeneic reactive T cells in mixed lymphocyte culture; format: cell-based, Balb/c; conditions: metformin 200 μM, 3 days
Method: as §1

[2] = tested on: allogeneic reactive T cells; test: mixed lymphocyte reaction (MLR), [3H]-thymidine uptake; format: cell-based, Balb/c; conditions: vs untreated Allo control
Method: To examine an immunomodulatory effect when T cells were co-treated with metformin and FK506 under in vitro allo-response conditions, an effect of metformin and FK506 on the proliferation of allogeneic reactive T cells was examined using a mixed lymphocyte culture method (i.e., a mixed lymphocyte reaction (MLR)) (FIG. 3). […] In this case, the T cells were treated separately or together with metformin (200 μM) or FK506 (1 nM or 100 nM) according to the experimental conditions, and then cultured for 3 days to stimulate an allogeneic response. On the last day of culture, [^3H]-thymidine was added, and the T cells were additionally cultured for 18 hours. Then, a level of [^3H]-thymidine uptake was measured using a liquid scintillation counter (Beckman, USA), and expressed as a cpm value. The statistical analysis was carried out using a Graph prism (t-test, ANOVA), and the statistical significance was p<0.05.

TNF-α = TNF-α secreted by LPS-stimulated splenocytes; format: cell-based, C57BL/6 mice; conditions: LPS 100 ng/ml, metformin 200 μM, FK506 100 nM, 3 days; vs control (LPS)
Method: as §2

IL-6 = IL-6 secreted by LPS-stimulated splenocytes; format: cell-based, C57BL/6 mice; conditions: LPS 100 ng/ml, metformin 200 μM, FK506 100 nM, 3 days; vs control (LPS)
Method: as §2

[3] = tested on: Splenocytes obtained from normal C57BL/6 mice; test: MTT assay under T cell activation conditions (anti-CD3); conditions: metformin 200 μM, FK506 100 nM, 3 days, anti-CD3 1 μg/ml; vs control (aCD3)
Method: Splenocytes obtained from normal C57BL/6 mice were seeded in a 96-well plate at a density of 2×10^5 cells/ml, treated with metformin (200 μM) or FK506 (100 nM) according to the experimental conditions, and then cultured for 3 days under anti-CD3 activation conditions (1 μg/ml). In the MTT assay, a 3-(4,5dimethyl-thiazol-2-yl)-2,5-diphenyltetrazolium bromide compound was added before 4 hours of cell harvesting, and reacted for 4 hours. Thereafter, each well was treated with DMSO to measure the optical density at a wavelength of 540 nm.

[4] = metformin 200 μM, FK506 1 nM or 100 nM, 3 days

SMILES	concentration of IL-17 in the culture broth (IL-17; FK506 1 nM or 100 nM)	Treg activity (ratio of Foxp3+CD25+ cells to CD4+ T cells) (Treg cells)	concentration at 4 weeks [1]	concentration of immunoglobulins (IgG) in the culture broth (immunoglobulins (IgG))	concentration of IFN-γ in the culture broth (IFN-γ; FK506 1 nM or 100 nM)	proliferation of T cells ([3H]-thymidine uptake) [2, 4]	concentration of TNF-α in the culture broth (TNF-α)	concentration of IL-6 in the culture broth (IL-6)	concentration of IL-17 in the culture broth (IL-17; CsA 10 nM or 100 nM)	Treg level/activity (ratio of Foxp3+CD25+ cells to CD4+ T cells) (Treg cells; metformin 1 mM, CsA 100 nM, anti-CD3)	cytotoxicity, optical density at 540 nm (MTT) [3]	concentration of IFN-γ in the culture broth (IFN-γ; CsA 10 nM or 100 nM)	proliferation of T cells ([3H]-thymidine uptake) ([2]; Met 200 μM or 1,000 μM, CsA 10 nM or 100 nM, co-administered metformin 200 μM)
C=CC[C@@H]1/C=C(\C)C[C@H](C)C[C@H](OC)[C@H]2O[C@@](O)(C(=O)C(=O)N3CCCC[C@H]3C(=O)O[C@H](/C(C)=C/[C@@H]3CC[C@@H](O)[C@H](OC)C3)[C@H](C)[C@@H](O)CC1=O)[C@H](C)C[C@@H]2OC [FK506, Tacrolimus]	reduced	increased	10.2 ± 1.3 ng/mL	not significantly changed	reduced	remarkably reduced in a concentration-dependent manner	not highly reduced	not highly reduced	–	–	–	–	–
CN(C)C(=N)NC(=N)N [metformin, Metformin]	reduced	increased	–	not significantly changed	reduced	suppressed	not highly reduced	not highly reduced	reduced	increased	no big difference in optical densities	reduced	suppressed
